Experimental findings from patent US6638973B2, “Taxane formulations” (FSU Research Foundation, Inc., priority 2000, dated 2003) are described below.

Some results are limits rather than exact numbers.

This experiment concerns HCT116 cells. Briefly: In vitro cytotoxicity measured by the cell colony formation assay. In kind it is cell-based. The settings on record: HCT116 colony formation; 72 h drug incubation, colonies counted after 7 days; Example 10, C-10 ester/C-7 hydroxy taxanes; read-out: IN VITRO ID 50 (nm) HCT116. On the procedure:
(§1) Four hundred cells (HCT116) were plated in 60 mm Petri dishes containing 2.7 mL of medium (modified McCoy's 5a medium containing 10% fetal bovine serum and 100 units/mL penicillin and 100 µg/mL streptomycin). The cells were incubated in a CO2 incubator at 37° C. for 5 h for attachment to the bottom of Petri dishes. The compounds identified in Example 2 were made up fresh in medium at ten times the final concentration, and then 0.3 mL of this stock solution was added to the 2.7 mL of medium in the dish. The cells were then incubated with drugs for 72 h at 37° C. At the end of incubation the drug-containing media were decanted, the dishes were rinsed with 4 mL of Hank's Balance Salt Solution (HBSS), 5 mL of fresh medium was added, and the dishes were returned to the incubator for colony formation. The cell colonies were counted using a colony counter after incubation for 7 days.
as §1, with “Example 7” for “Example 2”
as §1, with “Example 22” for “Example 2”
as §1, with “Example 27” for “Example 2”
Four hundred cells (HCT116) were plated in 60 mm Petri dishes containing 2.7 mL of medium (modified McCoy's 5a medium containing 10% fetal bovine serum and 100 units/mL penicillin and 100 µg/mL streptomycin). The cells were incubated in a CO2 incubator at 37° C. for 5 h for attachment to the bottom of Petri dishes. […]
Take `CCC(=O)O[C@H]1C(=O)[C@@]2(C)C([C@H](OC(=O)c3ccccc3)[C@]3(O)C[C@H](OC(=O)[C@H](O)[C@H](C=C(C)C)NC(=O)OC(C)(C)C)C(C)=C1C3(C)C)[C@]1(OC(C)=O)CO[C@@H]1C[C@@H]2O` (stereo partly drawn) [Compound 0499]: the IC50 is below 1 nM.

With `CCC(=O)O[C@H]1C(=O)[C@@]2(C)C([C@H](OC(=O)c3ccccc3)[C@]3(O)C[C@H](OC(=O)[C@H](O)[C@@H](NC(=O)OC(C)(C)C)c4ccccn4)C(C)=C1C3(C)C)[C@]1(OC(C)=O)CO[C@@H]1C[C@@H]2O` (stereo partly drawn) [Compound 0503], the IC50 is below 1 nM.

With `CCC(=O)O[C@H]1C(=O)[C@@]2(C)C([C@H](OC(=O)c3ccccc3)[C@]3(O)C[C@H](OC(=O)[C@H](O)[C@@H](NC(=O)OC(C)(C)C)c4cccnc4)C(C)=C1C3(C)C)[C@]1(OC(C)=O)CO[C@@H]1C[C@@H]2O` (stereo partly drawn) [Compound 0517], the IC50 is below 10 nM.

Consider `CCC(=O)O[C@H]1C(=O)[C@@]2(C)C([C@H](OC(=O)c3ccccc3)[C@]3(O)C[C@H](OC(=O)[C@H](O)[C@@H](NC(=O)OC(C)(C)C)c4ccncc4)C(C)=C1C3(C)C)[C@]1(OC(C)=O)CO[C@@H]1C[C@@H]2O` (stereo partly drawn) [Compound 0521], for which the IC50 was below 1 nM.

In the case of `CCC(=O)O[C@H]1C(=O)[C@@]2(C)C([C@H](OC(=O)c3ccccc3)[C@]3(O)C[C@H](OC(=O)[C@H](O)[C@@H](NC(=O)OC(C)(C)C)c4ccco4)C(C)=C1C3(C)C)[C@]1(OC(C)=O)CO[C@@H]1C[C@@H]2O` (stereo partly drawn) [Compound 0536], the IC50 was below 1 nM.

Consider `CCC(=O)O[C@H]1C(=O)[C@@]2(C)C([C@H](OC(=O)c3ccccc3)[C@]3(O)C[C@H](OC(=O)[C@H](O)[C@@H](NC(=O)OC(C)(C)C)c4ccoc4)C(C)=C1C3(C)C)[C@]1(OC(C)=O)CO[C@@H]1C[C@@H]2O` (stereo partly drawn) [Compound 0549], for which the IC50 was below 10 nM.

As for `CCC(=O)O[C@H]1C(=O)[C@@]2(C)C([C@H](OC(=O)c3ccccc3)[C@]3(O)C[C@H](OC(=O)[C@H](O)[C@@H](NC(=O)OC(C)(C)C)c4cccs4)C(C)=C1C3(C)C)[C@]1(OC(C)=O)CO[C@@H]1C[C@@H]2O` (stereo partly drawn) [Compound 0550], the IC50 was below 10 nM.

On to `CCC(=O)O[C@H]1C(=O)[C@@]2(C)C([C@H](OC(=O)c3ccccc3)[C@]3(O)C[C@H](OC(=O)[C@H](O)[C@@H](NC(=O)OC(C)(C)C)c4ccsc4)C(C)=C1C3(C)C)[C@]1(OC(C)=O)CO[C@@H]1C[C@@H]2O` (stereo partly drawn) [Compound 0562], for which the IC50 is below 1 nM.

As to `CCC(=O)O[C@H]1C(=O)[C@@]2(C)C([C@H](OC(=O)c3ccccc3)[C@]3(O)C[C@H](OC(=O)[C@H](O)[C@@H](NC(=O)OC(C)(C)C)C4CC4)C(C)=C1C3(C)C)[C@]1(OC(C)=O)CO[C@@H]1C[C@@H]2O` (stereo partly drawn) [Compound 0578], the IC50 is below 1 nM.

Regarding `CCC(=O)O[C@H]1C(=O)[C@@]2(C)C([C@H](OC(=O)c3ccccc3)[C@]3(O)C[C@H](OC(=O)[C@H](O)[C@@H](NC(=O)OC(C)(C)C)C(C)C)C(C)=C1C3(C)C)[C@]1(OC(C)=O)CO[C@@H]1C[C@@H]2O` (stereo partly drawn) [Compound 0583], the IC50 was below 10 nM.

As to `CCC(=O)O[C@H]1C(=O)[C@@]2(C)C([C@H](OC(=O)c3ccccc3)[C@]3(O)C[C@H](OC(=O)[C@H](O)[C@@H](NC(=O)OC(C)(C)C)C4CCC4)C(C)=C1C3(C)C)[C@]1(OC(C)=O)CO[C@@H]1C[C@@H]2O` (stereo partly drawn) [Compound 0596], the IC50 was below 10 nM.

`CCC(=O)O[C@H]1C(=O)[C@@]2(C)C([C@H](OC(=O)c3ccccc3)[C@]3(O)C[C@H](OC(=O)[C@H](O)[C@@H](NC(=O)OC(C)(C)C)c4ccc([N+](=O)[O-])cc4)C(C)=C1C3(C)C)[C@]1(OC(C)=O)CO[C@@H]1C[C@@H]2O` (stereo partly drawn) [Compound 0602]: the IC50 is below 1 nM.

`CCC(=O)O[C@H]1C(=O)[C@@]2(C)C([C@H](OC(=O)c3ccccc3)[C@]3(O)C[C@H](OC(=O)[C@H](O)[C@@H](NC(=O)OC(C)(C)C)c4ccccc4)C(C)=C1C3(C)C)[C@]1(OC(C)=O)CO[C@@H]1C[C@@H]2O` (stereo partly drawn) [Compound 0611]: the IC50 was below 10 nM.

Consider `CCC(=O)O[C@H]1C(=O)[C@@]2(C)C([C@H](OC(=O)c3ccccc3)[C@]3(O)C[C@H](OC(=O)[C@H](O)[C@H](C=C(C)C)NC(=O)c4ccccc4)C(C)=C1C3(C)C)[C@]1(OC(C)=O)CO[C@@H]1C[C@@H]2O` (stereo partly drawn) [Compound 0625], for which the IC50 is below 1 nM.

With `CCC(=O)O[C@H]1C(=O)[C@@]2(C)C([C@H](OC(=O)c3ccccc3)[C@]3(O)C[C@H](OC(=O)[C@H](O)[C@@H](NC(=O)c4ccccc4)c4ccccn4)C(C)=C1C3(C)C)[C@]1(OC(C)=O)CO[C@@H]1C[C@@H]2O` (stereo partly drawn) [Compound 0634], the IC50 is below 10 nM.

Turning to `CCC(=O)O[C@H]1C(=O)[C@@]2(C)C([C@H](OC(=O)c3ccccc3)[C@]3(O)C[C@H](OC(=O)[C@H](O)[C@@H](NC(=O)c4ccccc4)c4cccnc4)C(C)=C1C3(C)C)[C@]1(OC(C)=O)CO[C@@H]1C[C@@H]2O` (stereo partly drawn) [Compound 0647], the IC50 was found to be 12 nM.

Turning to `CCC(=O)O[C@H]1C(=O)[C@@]2(C)C([C@H](OC(=O)c3ccccc3)[C@]3(O)C[C@H](OC(=O)[C@H](O)[C@@H](NC(=O)c4ccccc4)c4ccncc4)C(C)=C1C3(C)C)[C@]1(OC(C)=O)CO[C@@H]1C[C@@H]2O` (stereo partly drawn) [Compound 0659], the IC50 was below 1 nM.

`CCC(=O)O[C@H]1C(=O)[C@@]2(C)C([C@H](OC(=O)c3ccccc3)[C@]3(O)C[C@H](OC(=O)[C@H](O)[C@@H](NC(=O)c4ccccc4)c4ccco4)C(C)=C1C3(C)C)[C@]1(OC(C)=O)CO[C@@H]1C[C@@H]2O` (stereo partly drawn) [Compound 0663]: the IC50 was below 1 nM.

For the compound `CCC(=O)O[C@H]1C(=O)[C@@]2(C)C([C@H](OC(=O)c3ccccc3)[C@]3(O)C[C@H](OC(=O)[C@H](O)[C@@H](NC(=O)c4ccccc4)c4ccoc4)C(C)=C1C3(C)C)[C@]1(OC(C)=O)CO[C@@H]1C[C@@H]2O` (stereo partly drawn) [Compound 0670], the IC50 was below 1 nM.

`CCC(=O)O[C@H]1C(=O)[C@@]2(C)C([C@H](OC(=O)c3ccccc3)[C@]3(O)C[C@H](OC(=O)[C@H](O)[C@@H](NC(=O)c4ccccc4)c4ccsc4)C(C)=C1C3(C)C)[C@]1(OC(C)=O)CO[C@@H]1C[C@@H]2O` (stereo partly drawn) [Compound 0691]: the IC50 was below 1 nM.

`CCC(=O)O[C@H]1C(=O)[C@@]2(C)C([C@H](OC(=O)c3ccccc3)[C@]3(O)C[C@H](OC(=O)[C@H](O)[C@@H](NC(=O)c4ccccc4)C4CC4)C(C)=C1C3(C)C)[C@]1(OC(C)=O)CO[C@@H]1C[C@@H]2O` (stereo partly drawn) [Compound 0706]: the IC50 is below 1 nM.

For the compound `CCC(=O)O[C@H]1C(=O)[C@@]2(C)C([C@H](OC(=O)c3ccccc3)[C@]3(O)C[C@H](OC(=O)[C@H](O)[C@@H](NC(=O)c4ccccc4)C(C)C)C(C)=C1C3(C)C)[C@]1(OC(C)=O)CO[C@@H]1C[C@@H]2O` (stereo partly drawn) [Compound 0719], the IC50 is below 10 nM.

As to `CCC(=O)O[C@H]1C(=O)[C@@]2(C)C([C@H](OC(=O)c3ccccc3)[C@]3(O)C[C@H](OC(=O)[C@H](O)[C@@H](NC(=O)c4ccccc4)C4CCC4)C(C)=C1C3(C)C)[C@]1(OC(C)=O)CO[C@@H]1C[C@@H]2O` (stereo partly drawn) [Compound 0720], the IC50 was below 10 nM.

Turning to `CCC(=O)O[C@H]1C(=O)[C@@]2(C)C([C@H](OC(=O)c3ccccc3)[C@]3(O)C[C@H](OC(=O)[C@H](O)[C@@H](NC(=O)c4ccccc4)c4ccc([N+](=O)[O-])cc4)C(C)=C1C3(C)C)[C@]1(OC(C)=O)CO[C@@H]1C[C@@H]2O` (stereo partly drawn) [Compound 0732], the IC50 was below 10 nM.
